Measurements reported in PMC9732821, “Neurotrophic Activity and Its Modulation by Zinc Ion of a Dimeric Peptide Mimicking the Brain-Derived Neurotrophic Factor N-Terminal Region” (ACS Chemical Neuroscience, 2022).

B1: brain-derived neurotrophic factor (protein, UniProt P23560 1-247, looked up)
chain: MTILFLTMVISYFGCMKAAPMKEANIRGQGGLAYPGVRTHGTLESVNGPKAGSRGLTSLADTFEHVIEELLDEDQKVRPNEENNKDADLYTSRVMLSSQVPLEPPLLFLLEEYKNYLDAANMSMRVRRHSDPARRGELSVCDSISEWVTAADKKTAVDMSGGTVTVLEKVPVSKGQLKQYFYETKCNPMGYTKEGCRGIDKRHWNSQCRTTQSYVRALTMDSKKRIGWRFIRIDTSCVCTLTIKRGR
modifications: full-length
notes: full-length human BDNF produced recombinantly in Escherichia coli

Columns and labels:
AKT = AKT phosphorylation, in cell ELISA in differentiated SH-SY5Y cells; type: cell-based, human; conditions: 10 min; 150 ng/mL BDNF or 10 μM peptide; three independent replicas in duplicate
Description: (§1) ERK and AKT phosphorylation were assessed in a 96-well plate format, performing an in cell ELISA assay as previously described 4. SH-SY5Y or HEK 293T cells were seeded at a density of 5.000 and 80.000 cell/well in 96 multiwell respectively, and the former were differentiated as describe above.
(§2) Cells were treated as described for TrkB phosphorylation or reported in the graphs, then washed with 0.1% Triton X-100 in PBS and fixed with 4% paraformaldehyde. Cells were then permeabilized (1% BSA; 0.1% Triton X-100 in PBS) for 1 hour, at the end, cells were incubated overnight at 4°C with anti-phospho ERK (1:500, sc-7383, Santa Cruz) or phosphor AKT (1:500, sc-16646-R-, Santa Cruz) antibodies. Next day, after the incubation with HRP-conjugated secondary antibody (anti-mouse # 31430, Invitrogen; anti-rabbit A0545, Sigma-Aldrich) the TMB substrate was added and the absorbance was read at 450 nm. Cells were incubated with only the secondary antibody to obtain the aspecific binding (Blanks). The absorbances were normalized to the relative number of cells in each well that was determined using Crystal Violet staining.
SH-SY5Y Immunofluorescence analysis
SH-SY5Y cells were seeded on a 24-well plate (5.000 cell/well) and differentiated with retinoic acid as describe above. Cells were treated for 60’ in an unsupplemented medium with BDNF (150 ng/ml) or d-bdnf (10 µM) alone or in combination. Samples were then fixed (4% PFA, 5% sucrose/PBS, 15 min) and subjected to a non-permeabilizing immunofluorescence assay. Briefly, cells were incubated with the blocking solution (5% BSA/PBS) for 1 h at room temperature and incubated overnight at 4 °C with chicken anti-BDNF (1:100, G164A Promega) antibody diluted in 2.5% BSA/PBS. The next morning samples were incubated with an Alexa568-conjugated anti-chicken secondary antibody (1:500, Thermofisher) in 2.5% BSA/PBS for 2h at room temperature. Coverslips were mounted with Fluoroshield-DAPI (Sigma-Aldrich) and imaged with a laser scanning confocal microscope (Nikon A1, Eclipse Ti), using a 60× oil objective (NA 1 .40) and pinhole set to 1 AU. Images were acquired […]
nm laser (emission window 545-645 nm). BDNF fluorescence intensity was analysed using FIJI ImageJ software. Briefly, the background intensity was subtracted from all red channel fields and an image threshold was applied to calculate the mean fluorescence intensity of the cells only. Results shown constitute the pool of fields stemming from two replicates.
ReNCell cell culture, differentiation and immunofluorescence analysis

ERK = ERK phosphorylation, in cell ELISA in differentiated SH-SY5Y cells; type: cell-based, human; conditions: for ERK phosphorylation increase vs unstimulated control: 10 min, 150 ng/mL BDNF or 10 μM peptide, three independent replicas in duplicate; for EC50 / maximal effect (Emax) of ERK phosphorylation: dose–response, differentiated SH-SY5Y, two independent replicas in duplicate; for maximal effect (Emax) of ERK phosphorylation: BDNF and d-bdnf not significantly different
Description: Figure 1 Activation of the TrkB receptor by BDNF and its mimetic peptide ligands. (A) Schematic picture of the human TrkB receptor fused to the EGFP construct (hTrkB-EGFP); recombinant human mature BDNF (hBDNF); monomeric peptide, m-bdnf; dimeric peptide, d-bdnf; scrambled s-bdnf. (B) WB showing Tyr phosphorylation (p-Tyr, top) and total TrkB levels (bottom) in SH-SY5Y cells transfected with hTrkB-EGFP in the absence (ctrl) or presence of 10 min stimulation with 150 ng/mL BDNF or 10 μM m-bdnf, d-bdnf, or s-bdnf. Samples were immunoprecipitated (IP) with the anti-GFP antibody before WB. The relative density of the bands is reported on the right of the blots, as mean ± SEM of five (BDNF) and four (peptides) independent replicas; each p-Tyr band density was divided for the respective TrkB band and normalized to the ctrl signal (***p < 0.001, *p < 0.05 vs ctrl, according to one-way ANOVA with Bonferroni’s multiple comparison test). (C) Scatter dot plot of ERK (left) and AKT (right) phosphorylation levels detected in differentiated SH-SY5Y cells, after stimulation with the same treatments as in (B). Phosphorylation levels were normalized to the cell number and reported as percentage versus the ctrl. Data ± SD were pooled from three independent replicas performed in duplicate. (D) ERK phosphorylation dose–response curve of BDNF and d-bdnf. Data ± SEM were pooled from two independent replicas performed in duplicate. (E) Intensity image of a TrkB-EGFP transfected cell (scale bar 10 μm). White square defines a region of the image that contains both the cell membrane and the background signal. […] The dashed black lines identify the mean values of B for the monomer and the dimer, as indicated. (G) Bar graph of mean ± SD ‘B-1’ values retrieved from N&B analysis for all the different conditions measured. The horizontal dashed lines indicate the ‘B-1’ average values assigned to the monomer (based on data from f-EGFP) and the dimer. Data (round circles) were pooled from two independent experiments. A one-way ANOVA with Dunnett’s multiple comparisons test was applied to compare data to the f-EGFP reference (*p < 0.05, ***p < 0.001, ****p < 0.0001). […]
as §1
as §2, with “staining. […]” for “staining.”
°C with chicken anti-BDNF (1:100, G164A Promega) antibody diluted in 2.5% BSA/PBS. The next morning samples were incubated with an Alexa568-conjugated anti-chicken secondary antibody (1:500, Thermofisher) in 2.5% BSA/PBS for 2h at room temperature. Coverslips were mounted with Fluoroshield-DAPI (Sigma-Aldrich) and imaged with a laser scanning confocal microscope (Nikon A1, Eclipse Ti), using a 60× oil objective (NA 1 .40) and pinhole set to 1 AU. Images were acquired […]
nm laser (emission window 545-645 nm). BDNF fluorescence intensity was analysed using FIJI ImageJ software. Briefly, the background intensity was subtracted from all red channel fields and an […]

Row | Molecule | AKT phosphorylation increase vs unstimulated control (AKT) | ERK phosphorylation increase vs unstimulated control (ERK) | EC50 (ERK) [µM] | maximal effect (Emax) of ERK phosphorylation (ERK) | EC50 (ERK; referred to the monomer form) [µM]
1 | HSDPARRGELSV-NH2 [m-bdnf, linear peptide fragment encompassing the first 12 amino acids of the mature NT N-terminal] | only BDNF and d-bdnf were able to induce a significant ERK and AKT phosphorylation increase | only BDNF and d-bdnf were able to induce a significant ERK and AKT phosphorylation increase |  |  | 
2 | HSDPARRGELSVC-C-VSLEGRRAPDSH (disulfide) [d-bdnf] | significant ERK and AKT phosphorylation increase | significant ERK and AKT phosphorylation increase | 13.6 ± 3.87 | 227.3 ± 6.3 | 
3 | SRAGPHLRDVSE-NH2 [s-bdnf] | only BDNF and d-bdnf were able to induce a significant ERK and AKT phosphorylation increase | only BDNF and d-bdnf were able to induce a significant ERK and AKT phosphorylation increase |  |  | 
4 | B1 | significant ERK and AKT phosphorylation increase | significant ERK and AKT phosphorylation increase |  | 237.1 ± 5.0 | 0.00069 ± 0.00024
